The text below walks through data of patent publication US20250145594A1, “MODULATORS OF THE INTEGRATED STRESS PATHWAY” (Calico Life Sciences LLC, priority 2020, published 2025).

By EC50 is commonly meant the concentration giving half of the maximal effect.

In this assay the test system is ATF4 luciferase reporter in HEK293T cells. Description: ATF4-Luc assay (in vitro model of VWMD). Format: cell-based, human. The following applies: Homo sapiens, HEK-293T, 7 h, HEK293T cells carrying the ATF4 luciferase reporter, 1 μg/mL tunicamycin, One Glo luminescence. In short, it runs like this:
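Tunicamycin (1 μg/mL) stress with co-added compound for 7 hours in HEK293T cells stably carrying an ATF4 5′-UTR–luciferase reporter. EC50 values come from the luminescent signal (One Glo).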
In general terms: Reporter assays use an easily measured gene product as a stand-in for the process of interest.
Take `O=C(NC12CC(n3cc(OCCCC(F)(F)F)cn3)(C1)C2)[C@H]1CC(O)c2cc(Cl)c(F)cc2O1` (stereo in doubt) [Compound 464, (2R,4R)-6-chloro-7-fluoro-4-hydroxy-N-{3-[4-(4,4,4-trifluorobutoxy)-1H-pyrazol-1-yl]bicyclo[1.1.1]pentan-1-yl}-3,4-dihydro-2H-1-benzopyran-2-carboxamide]: the half-maximal effective concentration (EC50) was less than 10 nM. Next, `O=C(NC12CC(n3cc(-c4ccc(OC(F)(F)F)cn4)cn3)(C1)C2)[C@H]1C[C@@H](O)c2cc(C(F)(F)F)c(F)cc2O1` [Compound 485, (2R,4R)-7-fluoro-4-hydroxy-N-(3-{4-[5-(trifluoromethoxy)pyridin-2-yl]-1H-pyrazol-1-yl}bicyclo[1.1.1]pentan-1-yl)-6-(trifluoromethyl)-3,4-dihydro-2H-1-benzopyran-2-carboxamide]: less than 10 nM. The result for `O=C(NC12CC(n3cc(-c4ccn(C(F)(F)F)n4)cn3)(C1)C2)[C@H]1C[C@@H](O)c2cc(Cl)c(F)cc2O1` [Compound 562, (2R,4R)-6-chloro-7-fluoro-4-hydroxy-N-{3-[1-(trifluoromethyl)-1H,1′H-[3,4‘-bipyrazol]-1’-yl]bicyclo[1.1.1]pentan-1-yl}-3,4-dihydro-2H-1-benzopyran-2-carboxamide] reads less than 10 nM; that for `O=C(NC12CC(c3ccc(OCCCOC(F)(F)F)nc3)(C1)C2)[C@H]1C[C@@H](O)c2cc(Cl)ccc2O1` [Compound 438, (2R,4R)-6-chloro-4-hydroxy-N-(3-{6-[3-(trifluoromethoxy)propoxy]pyridin-3-yl}bicyclo[1.1.1]pentan-1-yl)-3,4-dihydro-2H-1-benzopyran-2-carboxamide], 10 to 50 nM. Next, `O=C(NC12CC(n3cc(C(=O)N4CCC(OC(F)(F)F)CC4)cn3)(C1)C2)[C@H]1C[C@@H](O)c2cc(Cl)ccc2O1` [Compound 366, (2R,4R)-6-chloro-4-hydroxy-N-(3-{4-[4-(trifluoromethoxy)piperidine-1-carbonyl]-1H-pyrazol-1-yl}bicyclo[1.1.1]pentan-1-yl)-3,4-dihydro-2H-1-benzopyran-2-carboxamide]: 50 to 250 nM; `O=C(NC12CC(n3cc(OCCCOC(F)(F)F)cn3)(C1)C2)[C@H]1C[C@H](O)c2cc(C(F)(F)F)c(F)cc2O1` [Compound 636, (2R,4S)-7-fluoro-4-hydroxy-N-(3-{4-[3-(trifluoromethoxy)propoxy]-1H-pyrazol-1-yl}bicyclo[1.1.1]pentan-1-yl)-6-(trifluoromethyl)-3,4-dihydro-2H-1-benzopyran-2-carboxamide]: less than 10 nM; `O=C(NC12CC(n3cc([C@@H]4CC[C@H](OC(F)(F)F)C4)nn3)(C1)C2)[C@H]1C[C@@H](O)c2cc(Cl)ccc2O1` (mixture of isomers) [Compound 539, (2R,4R)-6-chloro-4-hydroxy-N-(3-{4-[(1RS,3SR)-3-(trifluoromethoxy)cyclopentyl]-1H-1,2,3-triazol-1-yl}bicyclo[1.1.1]pentan-1-yl)-3,4-dihydro-2H-1-benzopyran-2-carboxamide]: 10 to 50 nM. Consider `O=C(COc1ccc(Cl)c(F)c1)NC12CC(n3cc(C4CCN(CC(F)(F)F)CC4)cn3)(C1)C2` [Compound 608, 2-(4-chloro-3-fluorophenoxy)-N-(3-{4-[1-(2,2,2-trifluoroethyl)piperidin-4-yl]-1H-pyrazol-1-yl}bicyclo[1.1.1]pentan-1-yl)acetamide], for which the concentration giving a half-maximal response (EC50) lay in the range of 10 to 50 nM.

Regarding `O=C(NC12CC(n3cc(OCCOCC(F)(F)F)cn3)(C1)C2)[C@H]1C[C@@H](O)c2cc(Cl)ccc2O1` [Compound 425, (2R,4R)-6-chloro-4-hydroxy-N-(3-{4-[2-(2,2,2-trifluoroethoxy)ethoxy]-1H-pyrazol-1-yl}bicyclo[1.1.1]pentan-1-yl)-3,4-dihydro-2H-1-benzopyran-2-carboxamide], the EC50 is less than 10 nM.

For `O=C(COC12CC(NC(=O)[C@H]3C[C@@H](O)c4cc(Cl)ccc4O3)(C1)C2)N[C@H]1C[C@@H](OC(F)(F)F)C1` [Compound 342, (2R,4R)-6-chloro-4-hydroxy-N-[3-(2-oxo-2-{[cis-3-(trifluoromethoxy)cyclobutyl]amino}ethoxy)bicyclo[1.1.1]pentan-1-yl]-3,4-dihydro-2H-1-benzopyran-2-carboxamide], the EC50 was in the range of 10 to 50 nM. For the compound `O=C(NC12CC(c3ccnc(OCCOC(F)(F)F)n3)(C1)C2)[C@H]1C[C@@H](O)c2cc(Cl)ccc2O1` [Compound 525, (2R,4R)-6-chloro-4-hydroxy-N-(3-{2-[2-(trifluoromethoxy)ethoxy]pyrimidin-4-yl}bicyclo[1.1.1]pentan-1-yl)-3,4-dihydro-2H-1-benzopyran-2-carboxamide], the concentration for a half-maximal effect (EC50) is 10 to 50 nM. For `Cc1ccc(-c2cnn(C34CC(NC(=O)[C@H]5C[C@@H](O)c6cc(Cl)ccc6O5)(C3)C4)c2)nc1` [Compound 554, (2R,4R)-6-chloro-4-hydroxy-N-{3-[4-(5-methylpyridin-2-yl)-1H-pyrazol-1-yl]bicyclo[1.1.1]pentan-1-yl}-3,4-dihydro-2H-1-benzopyran-2-carboxamide], the EC50 was less than 10 nM. With `O=C(NC12CC(n3cnc(C(=O)N4CC[C@H](OC(F)(F)F)C4)c3)(C1)C2)[C@H]1C[C@@H](O)c2cc(Cl)ccc2O1` [Compound 386, (2R,4R)-6-chloro-4-hydroxy-N-(3-{4-[(3S)-3-(trifluoromethoxy)pyrrolidine-1-carbonyl]-1H-imidazol-1-yl}bicyclo[1.1.1]pentan-1-yl)-3,4-dihydro-2H-1-benzopyran-2-carboxamide], the half-maximal effective concentration (EC50) was less than 10 nM. In the case of `O=C(NC12CC(n3cc(-c4ccc(C(F)(F)F)cn4)cn3)(C1)C2)[C@H]1C[C@H](O)c2cc(Cl)c(F)cc2O1` [Compound 478, (2R,4S)-6-chloro-7-fluoro-4-hydroxy-N-(3-{4-[5-(trifluoromethyl)pyridin-2-yl]-1H-pyrazol-1-yl}bicyclo[1.1.1]pentan-1-yl)-3,4-dihydro-2H-1-benzopyran-2-carboxamide], the EC50 is less than 10 nM. For `COc1ncc(-c2cnn(C34CC(NC(=O)[C@H]5C[C@@H](O)c6cc(Cl)ccc6O5)(C3)C4)c2)cn1` [Compound 320, (2R,4R)-6-chloro-4-hydroxy-N-{3-[4-(2-methoxypyrimidin-5-yl)-1H-pyrazol-1-yl]bicyclo[1.1.1]pentan-1-yl}-3,4-dihydro-2H-1-benzopyran-2-carboxamide], the 50% effective concentration (EC50) was 10 to 50 nM. As to `O=C(NC12CC(n3cc(OCCCOC(F)(F)F)cn3)(C1)C2)[C@H]1C[C@@H](O)c2cc(Cl)c(F)cc2O1` [Compound 433, (2R,4R)-6-chloro-7-fluoro-4-hydroxy-N-(3-{4-[3-(trifluoromethoxy)propoxy]-1H-pyrazol-1-yl}bicyclo[1.1.1]pentan-1-yl)-3,4-dihydro-2H-1-benzopyran-2-carboxamide], the 50% effective concentration (EC50) is less than 10 nM.

Consider `O=C(NC12CC(n3cc(N4CC[C@@H](COC(F)(F)F)C4)cn3)(C1)C2)[C@H]1C[C@@H](O)c2cc(Cl)ccc2O1` [Compound 336, (2R,4R)-6-chloro-4-hydroxy-N-[3-(4-{(3R)-3-[(trifluoromethoxy)methyl]pyrrolidin-1-yl}-1H-pyrazol-1-yl)bicyclo[1.1.1]pentan-1-yl]-3,4-dihydro-2H-1-benzopyran-2-carboxamide], for which the EC50 lay within 50 to 250 nM.
